Measured values: ChEMBL document CHEMBL1148993, “UV-mediated genotoxicity of furanoquinoline and of certain tryptophan-derived alkaloids” (J Nat Prod, 1983)

What was measured:
Escherichia coli [1] = assay: Phototoxicity against Escherichia coli at 10 ug/disk in dark; format: functional; conditions: light or radiation study, read-out: IZ
CHO [2] = assay: Genotoxicity in CHO cells assessed as chromosomal aberrations at 62.5 ppm after 60 mins in dark followed by 5 W/m'2 UV irradiation for 30 mins; format: toxicity, cell-based, Cricetulus griseus; conditions: chinese hamster, 0.5 h
Candida albicans [3] = assay: Phototoxicity against Candida albicans at 10 ug/disk in dark; format: functional; conditions: light or radiation study, read-out: IZ
Bacillus subtilis [4] = assay: Phototoxicity against Bacillus subtilis at 10 ug/disk in dark; format: functional; conditions: light or radiation study, read-out: IZ
Pseudomonas fluorescens [5] = assay: Phototoxicity against Pseudomonas fluorescens at 10 ug/disk after irradiation with W/m'2 UV light; format: functional; conditions: light or radiation study, read-out: IZ
Staphylococcus aureus [6] = assay: Phototoxicity against Staphylococcus aureus at 10 ug/disk in dark; format: functional; conditions: light or radiation study, read-out: IZ
CHO [7] = assay: Genotoxicity in CHO cells assessed as chromosomal aberrations at 1.9 ppm after 60 mins in dark followed by 5 W/m'2 UV irradiation for 30 mins; format: toxicity, cell-based, Cricetulus griseus; conditions: chinese hamster, 0.5 h
Saccharomyces cerevisiae [8] = assay: Phototoxicity against Saccharomyces cerevisiae at 10 ug/disk after irradiation with W/m'2 UV light; format: functional; conditions: light or radiation study, read-out: IZ
CHO [9] = assay: Genotoxicity in CHO cells assessed as chromosomal aberrations at 15.6 ppm after 60 mins in dark followed by 5 W/m'2 UV irradiation for 30 mins; format: toxicity, cell-based, Cricetulus griseus; conditions: chinese hamster, 0.5 h
Pseudomonas aeruginosa [10] = assay: Phototoxicity against Pseudomonas aeruginosa at 10 ug/disk after irradiation with W/m'2 UV light; format: functional; conditions: light or radiation study, read-out: IZ
CHO [11] = assay: Genotoxicity in CHO cells assessed as mitotic inhibition at 3.9 ppm after 60 mins in dark followed by 5 W/m'2 UV irradiation for 30 mins; format: toxicity, cell-based, Cricetulus griseus; conditions: chinese hamster, 0.5 h
CHO [12] = assay: Genotoxicity in CHO cells assessed as chromosomal aberrations at 31.2 ppm after 60 mins in dark followed by 5 W/m'2 UV irradiation for 30 mins; format: toxicity, cell-based, Cricetulus griseus; conditions: chinese hamster, 0.5 h
Candida albicans [13] = assay: Phototoxicity against Candida albicans at 10 ug/disk after irradiation with W/m'2 UV light; format: functional; conditions: light or radiation study, read-out: IZ
Escherichia coli [14] = assay: Phototoxicity against Escherichia coli at 10 ug/disk after irradiation with W/m'2 UV light; format: functional; conditions: light or radiation study, read-out: IZ
Bacillus subtilis [15] = assay: Phototoxicity against Bacillus subtilis at 10 ug/disk after irradiation with W/m'2 UV light; format: functional; conditions: light or radiation study, read-out: IZ
Enterococcus faecalis [16] = assay: Phototoxicity against Streptococcus faecalis at 10 ug/disk in dark; format: functional; conditions: light or radiation study, read-out: IZ
Staphylococcus aureus [17] = assay: Phototoxicity against Staphylococcus aureus at 10 ug/disk after irradiation with W/m'2 UV light; format: functional; conditions: light or radiation study, read-out: IZ
Enterococcus faecalis [18] = assay: Phototoxicity against Streptococcus faecalis at 10 ug/disk after irradiation with W/m'2 UV light; format: functional; conditions: light or radiation study, read-out: IZ
Pseudomonas aeruginosa [19] = assay: Phototoxicity against Pseudomonas aeruginosa at 10 ug/disk in dark; format: functional; conditions: light or radiation study, read-out: IZ
Pseudomonas fluorescens [20] = assay: Phototoxicity against Pseudomonas fluorescens at 10 ug/disk in dark; format: functional; conditions: light or radiation study, read-out: IZ
CHO [21] = assay: Genotoxicity in CHO cells assessed as chromosomal aberrations at 7.8 ppm after 60 mins in dark followed by 5 W/m'2 UV irradiation for 30 mins; format: toxicity, cell-based, Cricetulus griseus; conditions: chinese hamster, 0.5 h
CHO [22] = assay: Genotoxicity in CHO cells assessed as chromosomal aberrations at 125 ppm after 90 mins in dark; format: toxicity, cell-based, Cricetulus griseus; conditions: chinese hamster, 1.5 h
Saccharomyces cerevisiae [23] = assay: Phototoxicity against Saccharomyces cerevisiae at 10 ug/disk in dark; format: functional; conditions: light or radiation study, read-out: IZ
CHO [24] = assay: Genotoxicity in CHO cells assessed as chromosomal aberrations at 125 ppm after 60 mins in dark followed by 5 W/m'2 UV irradiation for 30 mins; format: toxicity, cell-based, Cricetulus griseus; conditions: chinese hamster, 0.5 h
Escherichia coli [25] = assay: Phototoxicity against Escherichia coli at 100 ug/disk in dark; format: functional; conditions: light or radiation study, read-out: IZ
Escherichia coli [26] = assay: Phototoxicity against Escherichia coli at 100 ug/disk after irradiation with W/m'2 UV light; format: functional; conditions: light or radiation study, read-out: IZ
Staphylococcus aureus [27] = assay: Phototoxicity against Staphylococcus aureus at 100 ug/disk in dark; format: functional; conditions: light or radiation study, read-out: IZ
Saccharomyces cerevisiae [28] = assay: Phototoxicity against Saccharomyces cerevisiae at 100 ug/disk in dark; format: functional; conditions: light or radiation study, read-out: IZ
Candida albicans [29] = assay: Phototoxicity against Candida albicans at 100 ug/disk in dark; format: functional; conditions: light or radiation study, read-out: IZ
CHO [30] = assay: Genotoxicity in CHO cells assessed as chromosomal aberrations at 12.5 ppm after 60 mins in dark followed by 5 W/m'2 UV irradiation for 30 mins; format: toxicity, cell-based, Cricetulus griseus; conditions: chinese hamster, 0.5 h
CHO [31] = assay: Genotoxicity in CHO cells assessed as chromosomal aberrations at 0.19 ppm after 60 mins in dark followed by 5 W/m'2 UV irradiation for 30 mins; format: toxicity, cell-based, Cricetulus griseus; conditions: chinese hamster, 0.5 h
CHO [32] = assay: Genotoxicity in CHO cells assessed as chromosomal aberrations at 1.56 ppm after 60 mins in dark followed by 5 W/m'2 UV irradiation for 30 mins; format: toxicity, cell-based, Cricetulus griseus; conditions: chinese hamster, 0.5 h
CHO [33] = assay: Genotoxicity in CHO cells assessed as chromosomal aberrations at 0.39 ppm after 60 mins in dark followed by 5 W/m'2 UV irradiation for 30 mins; format: toxicity, cell-based, Cricetulus griseus; conditions: chinese hamster, 0.5 h
Saccharomyces cerevisiae [34] = assay: Phototoxicity against Saccharomyces cerevisiae at 100 ug/disk after irradiation with W/m'2 UV light; format: functional; conditions: light or radiation study, read-out: IZ
Enterococcus faecalis [35] = assay: Phototoxicity against Streptococcus faecalis at 100 ug/disk in dark; format: functional; conditions: light or radiation study, read-out: IZ
Enterococcus faecalis [36] = assay: Phototoxicity against Streptococcus faecalis at 100 ug/disk after irradiation with W/m'2 UV light; format: functional; conditions: light or radiation study, read-out: IZ
Bacillus subtilis [37] = assay: Phototoxicity against Bacillus subtilis at 100 ug/disk in dark; format: functional; conditions: light or radiation study, read-out: IZ
Pseudomonas fluorescens [38] = assay: Phototoxicity against Pseudomonas fluorescens at 100 ug/disk after irradiation with W/m'2 UV light; format: functional; conditions: light or radiation study, read-out: IZ
CHO [39] = assay: Genotoxicity in CHO cells assessed as mitotic inhibition at 3.12 ppm after 60 mins in dark followed by 5 W/m'2 UV irradiation for 30 mins; format: toxicity, cell-based, Cricetulus griseus; conditions: chinese hamster, 0.5 h
Bacillus subtilis [40] = assay: Phototoxicity against Bacillus subtilis at 100 ug/disk after irradiation with W/m'2 UV light; format: functional; conditions: light or radiation study, read-out: IZ
Staphylococcus aureus [41] = assay: Phototoxicity against Staphylococcus aureus at 100 ug/disk after irradiation with W/m'2 UV light; format: functional; conditions: light or radiation study, read-out: IZ
CHO [42] = assay: Genotoxicity in CHO cells assessed as chromosomal aberrations at 0.78 ppm after 60 mins in dark followed by 5 W/m'2 UV irradiation for 30 mins; format: toxicity, cell-based, Cricetulus griseus; conditions: chinese hamster, 0.5 h
CHO [43] = assay: Genotoxicity in CHO cells assessed as chromosomal aberrations at 12.5 ppm after 90 mins in dark; format: toxicity, cell-based, Cricetulus griseus; conditions: chinese hamster, 1.5 h
Pseudomonas aeruginosa [44] = assay: Phototoxicity against Pseudomonas aeruginosa at 100 ug/disk after irradiation with W/m'2 UV light; format: functional; conditions: light or radiation study, read-out: IZ
Pseudomonas fluorescens [45] = assay: Phototoxicity against Pseudomonas fluorescens at 100 ug/disk in dark; format: functional; conditions: light or radiation study, read-out: IZ
Pseudomonas aeruginosa [46] = assay: Phototoxicity against Pseudomonas aeruginosa at 100 ug/disk in dark; format: functional; conditions: light or radiation study, read-out: IZ
CHO [47] = assay: Genotoxicity in CHO cells assessed as chromosomal aberrations at 6.25 ppm after 60 mins in dark followed by 5 W/m'2 UV irradiation for 30 mins; format: toxicity, cell-based, Cricetulus griseus; conditions: chinese hamster, 0.5 h
Candida albicans [48] = assay: Phototoxicity against Candida albicans at 100 ug/disk after irradiation with W/m'2 UV light; format: functional; conditions: light or radiation study, read-out: IZ

## O=c1ccc2nccc3c4ccccc4n1c23 [CANTHIN-6-ONE]
Escherichia coli [1]
  zone of inhibition at 10 µg/disc: 0 mm
CHO [2]
  Activity: Toxic
Candida albicans [3]
  zone of inhibition at 10 µg/disc: 9 mm
Bacillus subtilis [4]
  zone of inhibition at 10 µg/disc: 16 mm
Pseudomonas fluorescens [5]
  zone of inhibition at 10 µg/disc: 0 mm
Staphylococcus aureus [6]
  zone of inhibition at 10 µg/disc: 0 mm
CHO [7]
  Activity: 22.2%
Saccharomyces cerevisiae [8]
  zone of inhibition at 10 µg/disc: 13 mm
CHO [9]
  Activity: Toxic
Pseudomonas aeruginosa [10]
  zone of inhibition at 10 µg/disc: 0 mm
CHO [11]
  Activity: Active
CHO [12]
  Activity: Toxic
Candida albicans [13]
  zone of inhibition at 10 µg/disc: 13 mm
Escherichia coli [14]
  zone of inhibition at 10 µg/disc: 7 mm
Bacillus subtilis [15]
  zone of inhibition at 10 µg/disc: 8.6 mm
Enterococcus faecalis [16]
  zone of inhibition at 10 µg/disc: 0 mm
Staphylococcus aureus [17]
  zone of inhibition at 10 µg/disc: 10 mm
Enterococcus faecalis [18]
  zone of inhibition at 10 µg/disc: 0 mm
Pseudomonas aeruginosa [19]
  zone of inhibition at 10 µg/disc: 0 mm
Pseudomonas fluorescens [20]
  zone of inhibition at 10 µg/disc: 0 mm
CHO [21]
  Activity: Toxic
CHO [22]
  Activity: 0%
Saccharomyces cerevisiae [23]
  zone of inhibition at 10 µg/disc: 9 mm
CHO [24]
  Activity: Toxic

## Cc1ncc(C2CCCN2C)c2c1[nH]c1ccccc12 (stereo not drawn) [BREVIOCOLLINE]
Escherichia coli [25]
  zone of inhibition at 100 µg/disc: 0 mm
Escherichia coli [26]
  zone of inhibition at 100 µg/disc: 15.5 mm
Staphylococcus aureus [27]
  zone of inhibition at 100 µg/disc: 0 mm
Saccharomyces cerevisiae [28]
  zone of inhibition at 100 µg/disc: 0 mm
Candida albicans [29]
  zone of inhibition at 100 µg/disc: 0 mm
CHO [30]
  Activity: Toxic
CHO [31]
  Activity: 0%
CHO [32]
  Activity: 56%
CHO [33]
  Activity: 5.5%
Saccharomyces cerevisiae [34]
  zone of inhibition at 100 µg/disc: 7 mm
Enterococcus faecalis [35]
  zone of inhibition at 100 µg/disc: 0 mm
Enterococcus faecalis [36]
  zone of inhibition at 100 µg/disc: 14 mm
Bacillus subtilis [37]
  zone of inhibition at 100 µg/disc: 0 mm
Pseudomonas fluorescens [38]
  zone of inhibition at 100 µg/disc: 7 mm
CHO [39]
  Activity: Active
Bacillus subtilis [40]
  zone of inhibition at 100 µg/disc: 12.5 mm
Staphylococcus aureus [41]
  zone of inhibition at 100 µg/disc: 15.3 mm
CHO [42]
  Activity: 37.1%
CHO [43]
  Activity: 0%
Pseudomonas aeruginosa [44]
  zone of inhibition at 100 µg/disc: 13 mm
Pseudomonas fluorescens [45]
  zone of inhibition at 100 µg/disc: 0 mm
Pseudomonas aeruginosa [46]
  zone of inhibition at 100 µg/disc: 0 mm
CHO [47]
  Activity: Toxic
Candida albicans [48]
  zone of inhibition at 100 µg/disc: 9.5 mm
